Structures are written as SMILES.

For the first assay, the target named is T1, β-lactamase produced by Enterobacter cloacae IFO 12937 (Enterobacter cloacae, UniProt P05364).
T1 construct: The β-lactamase produced by Enterobacter cloacae IFO 12937; endogenous in cells; host or cells: Enterobacter cloacae IFO 12937
T1 sequence (P05364 21-381): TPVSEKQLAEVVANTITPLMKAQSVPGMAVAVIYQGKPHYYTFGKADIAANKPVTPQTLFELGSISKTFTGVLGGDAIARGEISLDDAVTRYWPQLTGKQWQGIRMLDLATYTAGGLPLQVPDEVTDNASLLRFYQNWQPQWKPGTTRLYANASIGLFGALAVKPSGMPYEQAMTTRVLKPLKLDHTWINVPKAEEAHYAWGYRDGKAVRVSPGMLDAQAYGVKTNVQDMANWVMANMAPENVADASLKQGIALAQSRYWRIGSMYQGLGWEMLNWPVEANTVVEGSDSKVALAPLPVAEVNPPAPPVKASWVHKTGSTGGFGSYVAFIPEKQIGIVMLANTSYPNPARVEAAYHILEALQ
Put plainly: Inhibitor concentration required to inhibit β-lactamase (cephalosporinase) activity by 50%, micro-iodometric method. Type of assay: biochemical. Particulars: Enterobacter cloacae IFO 12937 cephalosporinase; 0.05M phosphate buffer pH 7, 30° C., 10 minutes preincubation; cephalothin or ampicillin 0.1 mM; read-out: I50 (converted). The method, then: (§1) Determination of the inhibitor concentration required to inhibit the enzyme activity by 50%
(§2) The β-lactamase produced by Enterobacter cloacae IFO 12937 is used as a typical example of cephalosporinase, and that produced by Staphylococcus aureus 1840 as typical example of penicillinase. The β-lactamase in incubated is 0.05M phosphate buffer (pH 7) with an appropriate dilution of an inhibitor preparation at 30° C. for 10 minutes. Cephalothin or ampicillin is then added in an amount sufficient to produce a final concentration of 0.1 mM, and the enzymatic reaction is allowed to proceed for 10 minutes. The enzyme activity is determined by the micro-iodometric method [Journal of general Microbiology, vol. 33, page 121 (1963)]. Hereinafter, the inhibitor concentration required to inhibit the enzyme activity by 50% is expressed as I50. The I50 values for Enterobacter cloaceae are shown in Table 1, and the I50 values for Staphylococcus aureus in Table 2.
In the case of `COc1cccc(OC)c1C(=O)NC1CN(S(=O)(=O)O)C1=O` (stereo not shown), the IC50 was 7100 nM.
Still for that read-out and setting: the result for `CON=C(C(=O)NC1CN(S(=O)(=O)O)C1=O)c1nc(NC(=O)CCl)sc1Cl` (stereo not shown) reads 622 nM; that for `CON=C(C(=O)NC1CN(S(=O)(=O)O)C1=O)c1nc(N)sc1Cl` (stereo not shown), 2960 nM.
On the same count and under the same terms, the result for `Cc1ccc(SN=C(C(=O)NC2CN(S(=O)(=O)O)C2=O)c2ccccc2)cc1` (stereo not shown) reads 1250 nM; that for `CCN1CCN(C(=O)NC(C(=O)NC2CN(S(=O)(=O)O)C2=O)C2=C(Cl)CCCC2)C(=O)C1=O` (stereo not shown), 5680 nM.
Still for that read-out and setting: as for `CC(C)ON=C(C(=O)NC1CN(S(=O)(=O)O)C1=O)c1csc(N)n1` (stereo not shown), the figure is 50.1 nM; as for `COC1(NC(=O)C(N=[N+]=[N-])c2ccccc2)CN(S(=O)(=O)O)C1=O` (stereo not shown), 954 nM.
For `COc1ccc(COC(=O)C(C(=O)NC2(OC)CN(S(=O)(=O)O)C2=O)c2ccc(O)cc2)cc1` (stereo not shown), the IC50 was 387 nM.
For `CCCCCCCCN1CCN(C(=O)N[C@@H](C(=O)NC2CN(S(=O)(=O)O)C2=O)c2cccs2)C(=O)C1=O` (stereo partly drawn) [Compound 1, Sodium 3-[D-2-(4-n-octyl-2,3-dioxo-1-piperazinecarboxamido)-2-thienylacetamido]-2-oxoazetidine-1-sulfoante], the IC50 is 5020 nM.
Same read-out and setting: as for `CCCCCCCCN1CCN(C(=O)NC(C(=O)NC2(OC)CN(S(=O)(=O)O)C2=O)c2cccs2)C(=O)C1=O` (stereo not shown) [Compound 2], the figure is 78.3 nM; as for `COC1(NC(=O)C(C(=O)OCc2ccccc2)c2ccccc2)CN(S(=O)(=O)O)C1=O` (stereo not shown) [Compound 4], 89.2 nM.
The same measure, in the same setting: as for `COC1(NC(=O)C(C(=O)O)c2ccccc2)CN(S(=O)(=O)O)C1=O` (stereo not shown) [Compound 5], the figure is 391 nM; as for `CNC(=O)CC(NC(=O)OCc1ccccc1)C(=O)NC1(OC)CN(S(=O)(=O)O)C1=O` (stereo not shown) [Compound 6], 2400 nM.
Same read-out and setting: as for `CCN1CCN(C(=O)N[C@H](Cc2ccccc2)C(=O)NC2(OC)CN(S(=O)(=O)O)C2=O)C(=O)C1=O` (stereo partly shown) [Compound 7], the figure is 2150 nM; as for `COC1(NC(=O)[C@@H](C)NC(=O)OCc2ccccc2)CN(S(=O)(=O)O)C1=O` (stereo partly shown) [Compound 8], 7970 nM.
As for `CCN1CCN(C(=O)NC(C(=O)NC2CN(S(=O)(=O)O)C2=O)C2=CCCCC2)C(=O)C1=O` (stereo not shown) [Compound 10], the IC50 is 4880 nM.
On to `CCN1CCN(C(=O)NC(C(=O)NC2(OC)CN(S(=O)(=O)O)C2=O)c2ccccc2)C(=O)C1=O` (stereo not shown) [Compound 11], for which the IC50 was 523 nM.
On the same count and under the same terms, the result for `CON=C(C(=O)NC1(OC)CN(S(=O)(=O)O)C1=O)c1csc(N)n1` (stereo not shown) [Compound 13] reads 712 nM; that for `CON=C(C(=O)NC1(OC)CN(S(=O)(=O)O)C1=O)c1csc(NC(=O)CCl)n1` (stereo not shown) [Compound 14], 658 nM; that for `O=C(NC1CN(S(=O)(=O)O)C1=O)C(OS(=O)(=O)O)c1ccccc1` (stereo not shown) [Compound 15], 9460 nM.
On the same count and under the same terms, as for `CON=C(C(=O)NC1CN(S(=O)(=O)O)C1=O)c1ccccc1` (stereo not shown) [Compound 16], the figure is 15300 nM; as for `COc1cccc(OC)c1C(=O)NC1(OC)CN(S(=O)(=O)O)C1=O` (stereo not shown) [Compound 18], 5000 nM.
Regarding `CC(C)ON=C(C(=O)NC1CN(S(=O)(=O)O)C1=O)c1csc(N)n1` (stereo not shown) [Compound 23], the IC50 is 53 nM.
Take `COC1(NC(=O)C(C)NC(=O)C(CS(=O)(=O)NS(=O)(=O)O)NC(=O)OCc2ccccc2)CN(S(=O)(=O)O)C1=O` (stereo not shown) [Compound 24]: the IC50 was 1200 nM.
Still for that read-out and setting: the result for `Cc1onc(-c2c(Cl)cccc2Cl)c1C(=O)N[C@@H](C(=O)NC1CN(S(=O)(=O)O)C1=O)c1cccs1` (stereo partly drawn) [Compound 25, Sodium 3-[D-2-[[3-(2,6-dichlorophenyl)-5-methylisoxazol-4-yl]-carboxamido]-2-thienylacetamido]-2-oxoazetidine-1-suflonate] reads 6440 nM.
Same read-out and setting: as for `COC1(NC(=O)OCc2ccccc2)CN(S(=O)(=O)O)C1=O` (stereo not shown) [Compound 30, Sodium 3-benzyloxycarboxamido-3-methoxy-2-oxoazetidine-1-sulfonate], the figure is 15100 nM; as for `O=C(NC1CN(S(=O)(=O)O)C1=O)C(c1cccs1)N1C(=O)c2ccccc2C1=O` (stereo not shown) [Compound 34, Sodium 3-(2-phthalimido-2-thienylacetamido)-2-oxoazetidine-1-sulfonate], 873 nM.
As for `COC1(NC(=O)C(=NOC(C)C)c2csc(N)n2)CN(S(=O)(=O)O)C1=O` (stereo not shown) [Compound 36, Sodium 3-[2-(2-aminothiazol-4-yl)-2-(1-methylethoxyimino)actamido]-3-methoxy-2-oxoazetidine-1-sulfonate], the IC50 was 56.5 nM.
Turning to `COC1(NC(=O)[C@H](NC(=O)N2CCN(C3CCCCC3)C(=O)C2=O)c2cccs2)CN(S(=O)(=O)O)C1=O` (stereo partly drawn) [Compound 37, Sodium 3-[D-2-(4-cyclohexyl-2,3-dioxo-1-pipeadinecarboxamido)-2-thienylacetamido]-3-methoxy-2-oxoazetidine-1-sulfonate], the IC50 is 215 nM.
On to `COC1(NC(=O)[C@H](NC(=O)N2CCN(CC(=O)N3CCCCC3)C(=O)C2=O)c2cccs2)CN(S(=O)(=O)O)C1=O` (stereo partly drawn) [Compound 38, Sodium 3-methoxy-3-[D-2-(4-piperidinecarbonylmethyl-2,3-dioxo-1-piperadinecarboxamido)-2-thienylacetamido]-2-oxoazetidine-1-sulfonate], for which the IC50 is 130 nM.
Same read-out and setting: the result for `COC1(NC(=O)[C@H](NC(=O)N2CCN(c3ccccc3)C(=O)C2=O)c2cccs2)CN(S(=O)(=O)O)C1=O` (stereo partly drawn) [Compound 39, Sodium 3-methoxy-3-[D-2-(4-phenyl-2,3-dioxo-1-piperadinecarboxamido)-2-thienylacetamido]-2-oxoazetidine-1-sulfonate] reads 127 nM.
For the molecule `COC1(NC(=O)[C@H](NC(=O)N2CCN(C(C)(C)C)C(=O)C2=O)c2cccs2)CN(S(=O)(=O)O)C1=O` (stereo partly drawn) [Compound 40, Sodium 3-[D-2-(4-t-butyl-2,3-dioxo-1-piperadinecarboxamido)-2-thienylacetamido]-3-methoxy-2-oxoazetidine-1-sulfonate], the IC50 was 124 nM.
Same read-out and setting: as for `COC1(NC(=O)[C@H](NC(=O)N2CCN(CC=C(C)C)C(=O)C2=O)c2cccs2)CN(S(=O)(=O)O)C1=O` (stereo partly drawn) [Compound 41, Sodium 3-[D-2-[4-(3-methyl-2-butenyl)-2,3-dioxo-1-piperadinecarboxamido]-2-thienylacetamido]-3-methoxy-2-oxoazetidine-1-sulfonate], the figure is 120 nM; as for `CC(C)(ON=C(C(=O)NC1CN(S(=O)(=O)O)C1=O)c1csc(NC(c2ccccc2)(c2ccccc2)c2ccccc2)n1)C(=O)O` (stereo not shown) [Compound 43, Disodium 3-[2-[(1-carboxy-1-methylethoxy)imino]-2-(2-tritylaminothiazol-4-yl)acetamido]-2-oxoazetidine-1-sulfonate], 4820 nM.

For another assay, the target named is T2, β-lactamase produced by Staphylococcus aureus 1840 (Staphylococcus aureus, UniProt P00807).
T2 construct: endogenous in cells; host or cells: Staphylococcus aureus 1840
T2 sequence (P00807 25-281): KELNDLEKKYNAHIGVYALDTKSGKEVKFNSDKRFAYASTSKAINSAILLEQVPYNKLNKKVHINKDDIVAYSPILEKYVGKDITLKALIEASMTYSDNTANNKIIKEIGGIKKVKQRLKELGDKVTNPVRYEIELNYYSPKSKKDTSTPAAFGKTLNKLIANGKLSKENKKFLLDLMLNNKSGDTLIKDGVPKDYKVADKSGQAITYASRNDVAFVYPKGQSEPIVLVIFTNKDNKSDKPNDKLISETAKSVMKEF
Put plainly: Inhibitor concentration required to inhibit β-lactamase (penicillinase) activity by 50%, micro-iodometric method. Type of assay: biochemical. Particulars: Staphylococcus aureus 1840 penicillinase; 0.05M phosphate buffer pH 7, 30° C., 10 minutes preincubation; cephalothin or ampicillin 0.1 mM; read-out: I50 (converted). The method, then: as §1, §2
As to `O=C(NC1CN(S(=O)(=O)O)C1=O)C(=O)c1ccccc1` (stereo not shown), the IC50 is 12500 nM.
For `O=C(NC1CN(S(=O)(=O)O)C1=O)C(Br)c1ccccc1` (stereo not shown), the IC50 was 493 nM.
As to `[N-]=[N+]=NC(C(=O)NC1CN(S(=O)(=O)O)C1=O)c1ccccc1` (stereo not shown), the IC50 was 144 nM.
The same measure, in the same setting: as for `[N-]=[N+]=NC(C(=O)NC1CN(S(=O)(=O)O)C1=O)c1cccc(Cl)c1` (stereo not shown), the figure is 147 nM.
Same read-out and setting: as for `Cc1onc(-c2c(Cl)cccc2Cl)c1C(=O)N[C@@H](C(=O)NC1CN(S(=O)(=O)O)C1=O)c1cccs1` (stereo partly drawn) [Compound 25, Sodium 3-[D-2-[[3-(2,6-dichlorophenyl)-5-methylisoxazol-4-yl]-carboxamido]-2-thienylacetamido]-2-oxoazetidine-1-suflonate], the figure is 715 nM; as for `CCN1C(=O)C(=O)N(C(=O)N[C@@H](C(=O)NC2CN(S(=O)(=O)O)C2=O)c2cccs2)C[C@@H]1C` (stereo partly drawn) [Compound 44, Sodium 3-[D-2-(4-ethyl-5(S)-methyl-2,3-dioxo-2,3-dioxo-1-piperazinecarboxamido)-2-thienylacetamido]-2-oxoazetidine-1-sulfonate], 2460 nM.
As for `O=C(NC1CN(S(=O)(=O)O)C1=O)[C@H](NC(=O)N1CCNC1=O)c1cccs1` (stereo partly drawn) [Compound 45, Sodium 3-[D-2-[(2-oxoimidazolidin-1-yl)carboxamido]-2-thienylacetamido]-2-oxoazetidine-1-sulfonate], the IC50 was 5750 nM.
Same read-out and setting: as for `O=C(CSc1c(Cl)cccc1Cl)N[C@@H](C(=O)NC1CN(S(=O)(=O)O)C1=O)c1ccccc1` (stereo partly shown) [Compound 46], the figure is 9650 nM; as for `Nc1nc(CC(=O)N[C@@H](C(=O)NC2CN(S(=O)(=O)O)C2=O)c2ccccc2)cs1` (stereo partly shown) [Compound 47], 11400 nM.
Same read-out and setting: as for `O=C(NC(CS(=O)(=O)NC1CN(S(=O)(=O)O)C1=O)C(=O)OCc1ccccc1)OCc1ccccc1` (stereo not shown) [Compound 48], the figure is 3140 nM; as for `CS(=O)(=O)NC1CN(S(=O)(=O)O)C1=O` (stereo not shown) [Compound 52], 14300 nM.
The same measure, in the same setting: the result for `CCOC(=O)C(C(=O)c1ccccc1)=C1SC(C(=O)NC2CN(S(=O)(=O)O)C2=O)S1` (stereo not shown) [Compound 54] reads 2540 nM.

For the origin of these results see patent US4725591A, “β-lactamase inhibitory composition” (Takeda Chemical Industries, Ltd., priority 1980, dated 1988).
